Molecules are shown by their SMILES. Activity calls are given as the source filed them.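 Rule for the calls: active = a tumor-causing dose value with its tumor site reported for any sex and species group of a rodent or other animal cancer study; inconclusive = only studies judged inadequate by the national testing program; inactive = tested in at least one study, none positive.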 Numbered stars: 1 amine (or outer) side, 2 acyl side, 3 side chain; on linkers, the order of the positions; unused ones are H or OH. Bridge positions count the residues as written; N and C are the ends. Square brackets hold non-standard residues; d marks the D form. Peptide text beside a SMILES is read from it. I, II: the chains in the order shown. Actinocin(9to1) = Cc1c2oc3c(C)ccc(C(=O)[*:1])c3nc-2c(C(=O)[*:2])c(N)c1=O; NMeV = CN[C@H](C(=O)O)C(C)C; Sar = CNCC(=O)O

The nature of this data set: DSSTox (CPDBAS) Carcinogenic Potency Database Summary SingleCellCall Results. As to conditions: animal chronic carcinogenicity bioassays, CPDB summary call. An outline of the steps:
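Categorical carcinogenicity call compiled from published chronic rodent and other animal cancer bioassays; based on the most positive result across experiments for each sex-species, assigned on minimal evidence for or against activity.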
On to `CC(C)=CCC/C(C)=C/C=O`, for which the outcome was inactive. Under `O=[N+]([O-])c1cccc2ccccc12` stands “inactive”. With `O=S1OCCO1` the entry was “inactive”; with `c1ccc2sc(SN3CCOCC3)nc2c1`, “inactive”; with `COC(=O)C(c1ccccc1)C1CCCCN1N=O` (stereo unspecified), “inactive”. With `C=CC(OC(C)=O)c1ccc2c(c1)OCO2` (stereo unspecified) the entry was “active”; with `COc1nn(CSP(=S)(OC)OC)c(=O)s1`, “active”; with `O=C(Nc1nc(-c2ccc([N+](=O)[O-])o2)cs1)C(F)(F)F`, “active”. Take `CC1(C)C(=O)NC(=O)NC1=O`: the outcome was “inactive; active”.

On to `C[C@@H]1O[C@@]2(CS1)CN1CCC2CC1`, for which the outcome was inactive. Under `NS(=O)(=O)c1cc(C(=O)O)c(NCc2ccco2)cc1Cl` stands “active; inactive”.

Turning to `OO`, the outcome was “active; inactive”. Under `CC(C)C/C=N/N(C)C=O` stands “active”; under `O=S(=O)(O)c1c(N=Nc2c(O)ccc3ccccc23)ccc2ccccc12`, “inactive; active”.

Regarding `N[C@@H](CS)C(=O)O`, the outcome was inactive. Under `Nc1ccc2ccccc2c1` stands “active”. On to `Cc1c(-c2cnccn2)ssc1=S`, for which the outcome is “inactive; active”. With `Nc1ccc(Nc2ccccc2)cc1` the entry was “inactive”; with `C[N+](C)(C)CCCl`, “inactive”.

As to `O=C1CCc2ccccc2O1`, the outcome is “active; inactive”. With `CCC1NC(=O)C2C(Cl)C(Cl)CN2C(=O)C(CO)NC(=O)CC(c2ccccc2)NC(=O)C(CO)NC1=O` (stereo unspecified) the entry was “active; inactive”. Regarding `NC(=O)N(CCCO)N=O`, the outcome was “active; inactive”. In the case of `C[C@@H]1CCC[C@H](C)N1CCCC(O)(c1ccccc1)c1ccccn1` (stereo partly specified), the outcome was “inactive; active”. With `O=C(O)c1[nH]n(-c2ccc(S(=O)(=O)O)cc2)c(=O)c1N=Nc1ccc(S(=O)(=O)O)cc1` the entry was “inactive”; with `CCC[CH2][Sn]([CH2]CCC)([O]C(C)=O)[O]C(C)=O`, “inactive”; with `Cc1ccccc1[N+](=O)[O-]`, “active”.

For `Cc1ccc(N)c(C)c1`, the outcome was active. Turning to `NNc1nc(-c2ccc([N+](=O)[O-])cc2)cs1`, the outcome was active. Under `Cc1ncc[nH]1` stands “active”. With `O=[N+]([O-])c1ccc2c(c1)Cc1ccccc1-2` the entry was “active”.

For `CNC[C@H](O)c1ccc(O)c(O)c1`, the outcome was inactive. With `O=P1(NCCCl)OCCCN1CCCl` (stereo unspecified) the entry was “active; inactive”; with `CCN(CC)C(=S)SSC(=S)N(CC)CC`, “inactive; active”. Under `N[C@@H](Cc1c[nH]c2ccccc12)C(=O)O` stands “inactive”; under `NC(=O)N/N=C/c1ccc([N+](=O)[O-])o1`, “active”. Under `c1ccc2[nH]ccc2c1` stands “inactive”; under `CC(=O)Nc1ccc(N=Nc2cc(C)ccc2O)cc1`, “active; inactive”. Consider `COC(=O)C1=C(C)NC(C)=C(C(=O)OCC(C)(C)CN(C)Cc2ccccc2)C1c1cc([N+](=O)[O-])ccc1F` (stereo unspecified), for which the outcome was inactive.

As for `Nc1ccc(/C=C/c2ccc(N)cc2S(=O)(=O)O)c(S(=O)(=O)O)c1`, the outcome is “inactive; active”. With `C/C=C/C(=O)Oc1c(C(C)CCCCCC)cc([N+](=O)[O-])cc1[N+](=O)[O-]` (stereo unspecified) the entry was “inactive”; with `C=CCNN`, “active”; with `O=NN1CCCCCCCCCCCC1`, “active”.

Turning to `BrC(Br)Br`, the outcome is “active; inactive”. `CN(C)c1ccc(N=NS(=O)(=O)O)cc1`: the outcome was inactive. Under `O=[N+]([O-])c1ccc2ncccc2c1` stands “inactive; active”.

As for `CC/C(=C(\c1ccccc1)c1ccc(OCCN(C)C)cc1)c1ccccc1`, the result was active. With `N[C@@H](Cc1cnc[nH]1)C(=O)O` the entry was “inactive”. On to `CC(COc1ccccc1)N(CCCl)Cc1ccccc1` (stereo unspecified), for which the outcome was “active; inactive”. With `ClC1=C(Cl)C(Cl)(Cl)C(Cl)=C1Cl` the entry was “inactive; active”; with `ClC(Cl)(Cl)C(Cl)(Cl)Cl`, “active”; with `Nc1ccc([N+](=O)[O-])cc1`, “inactive; active”. Under `O=S(=O)([O-])[O-].O=S(=O)([O-])[O-].[Zr+4]` stands “inactive”; under `Brc1cc(-c2ccc(Br)c(Br)c2Br)cc(Br)c1Br`, “inactive; active”.

For `CSCCC(N)C(=O)O` (stereo unspecified), the outcome was inactive. As for `Nc1ccc(-c2ccc(N)c(Cl)c2)cc1Cl`, the result was active.

For the molecule `CC(=O)OC[C@]12C[C@H](OC(=O)CC(C)C)C(C)=C[C@H]1O[C@@H]1[C@H](O)[C@@H](OC(C)=O)[C@@]2(C)C12CO2` (stereo partly specified), the outcome is “active; inactive”.

Consider `O=NN(CCO)CCO`, for which the outcome was “active; inactive”. With `Nc1ccc2c(n1)[nH]c1ccccc12` the entry was “active”; with `CN1[C@@H]2CC[C@H]1CC(OC(=O)C(CO)c1ccccc1)C2` (stereo partly specified), “inactive; active”. For the molecule `CC(CN1CC(=O)NC(=O)C1)N1CC(=O)NC(=O)C1` (stereo unspecified), the result was active. Turning to `Clc1cccc(-c2cccc(Cl)c2)c1`, the outcome was active. Under `S=C(SN1CCOCC1)N1CCOCC1` stands “active”; under `CC1SC(C)N(N=O)C(C)S1` (stereo unspecified), “active”. `O=C(O)c1ccncc1`: the outcome was inactive. With `CC(Oc1cc(Cl)ccc1Cl)C(=O)O` (stereo unspecified) the entry was “inactive”. With `Nc1ccc(NC(=O)c2ccc(N)cc2)cc1` the entry was “inactive; active”. `NNc1nc(-c2ccccc2)cs1`: the result was inactive.

As for `[O]N=O`, the result was inactive. Under `O=S1(=O)CCCO1` stands “active”; under `COC(=O)C1=CCCN(C)C1`, “active”.

Consider `Cc1c2oc3c(C)ccc(C(=O)N[C@@H]4C(=O)N[C@H](C(C)C)C(=O)N5CCC[C@H]5C(=O)N(C)CC(=O)N(C)[C@@H](C(C)C)C(=O)O[C@@H]4C)c3nc-2c(C(=O)N[C@@H]2C(=O)N[C@H](C(C)C)C(=O)N3CCC[C@H]3C(=O)N(C)CC(=O)N(C)[C@@H](C(C)C)C(=O)O[C@@H]2C)c(N)c1=O` (I: T[dV]P[Sar][NMeV] / II: T[dV]P[Sar][NMeV]; ester I:1-I:C, II:1-II:C; linker I:N-II:N via Actinocin(9to1)), for which the outcome is “active; inactive”. For `CN(CCc1ccccc1)N=O`, the outcome was active.

On to `CC(=O)Oc1c(C)c(C)c2c(c1C)CCC(C)(CCCC(C)CCCC(C)CCCC(C)C)O2` (stereo unspecified), for which the outcome was inactive. With `COP(=O)(OC)OC` the entry was “active”. As for `COC(C)(C)C`, the outcome was active.

As to `CC(=O)O[C@@H]1[C@@H](O)C2OC3C=C(C)C(=O)C(O)[C@@]3(CO)[C@]1(C)[C@]21CO1` (stereo partly specified), the outcome was inactive. With `O=S(=O)(O)NC1CCCCC1`, the result was active. Under `NC(N)=O` stands “inactive”; under `OCCN(CCO)C(=S)S`, “active”; under `NC(=S)NNC=O`, “inactive”. `Cc1cc(C(C)(C)C)c(O)c(C(C)(C)C)c1`: the outcome was active. Under `O=NN1CCSCC1` stands “active”; under `c1ccc2sc(SSc3nc4ccccc4s3)nc2c1`, “inactive”. With `O=C1CN=C(c2ccccc2)c2cc(Cl)ccc2N1CC1CC1` the entry was “inactive”; with `NC(=O)NNc1ccccc1`, “active; inactive”; with `CCCCC(CC)COP(=O)(OCC(CC)CCCC)OCC(CC)CCCC` (stereo unspecified), “active”. Under `CCN(C)N=O` stands “active”. With `Cc1cccn2c1nc1ccc(N)nc12`, the outcome was active.

Consider `c1ccc2sc(SNC3CCCCC3)nc2c1`, for which the outcome was inactive. Under `CC(=O)N(C(C)=O)c1cccc2c1Cc1ccccc1-2` stands “active”; under `CCCc1c(OCCCCc2nn[nH]n2)ccc(C(C)=O)c1O`, “active”. With `C#CC(OC(N)=O)(c1ccccc1)c1ccc(Cl)cc1` (stereo unspecified) the entry was “active; inactive”; with `CC(O)c1ccccc1` (stereo unspecified), “active; inactive”. Under `O=C(O)CCC(=O)O` stands “inactive; active”; under `C=C1C[C@@]23CC[C@H]4[C@@](C)(CCC[C@@]4(C)C(=O)O[C@@H]4O[C@H](CO)[C@@H](O)[C@H](O)[C@H]4O)[C@@H]2CC[C@]1(O[C@@H]1O[C@H](CO)[C@@H](O)[C@H](O)[C@H]1O[C@@H]1O[C@H](CO)[C@@H](O)[C@H](O)[C@H]1O)C3`, “inactive”. For `O=NN1C[C@H](O)C[C@H]1C(=O)O`, the result was inactive.

Consider `Cc1ccc2c(c1N)C(=O)c1ccccc1C2=O`, for which the outcome was active. Under `Cc1cc(O)ccc1O` stands “inactive; active”; under `O=P(=O)O`, “inactive”; under `NNCCc1ccccc1`, “active”.

As for `CC[C@H]1OC(=O)C[C@@H](O)[C@H](C)[C@@H](O[C@@H]2O[C@H](C)[C@@H](O[C@H]3C[C@@](C)(O)[C@@H](O)[C@H](C)O3)[C@H](N(C)C)[C@H]2O)[C@@H](CC=O)C[C@@H](C)C(=O)/C=C/C(C)=C/C1CO[C@@H]1O[C@H](C)[C@@H](O)[C@@H](OC)[C@H]1OC` (stereo partly specified), the result was inactive.

With `CCCCC(CC)COC(=O)CCCCC(=O)OCC(CC)CCCC` (stereo unspecified), the result was active.

On to `NC(=S)Nc1ccccc1`, for which the result was inactive.

Consider `[N-]=[N+]=CC(=O)OC[C@H](N)C(=O)O`, for which the outcome was active. With `Nc1nnc(-c2ccc([N+](=O)[O-])o2)o1` the entry was “active”; with `CCNC(=S)NCC`, “active”.
